Measured values: patent US11191705B2, “Personal cleansing compositions” (The Procter & Gamble Company, priority 2018, dated 2021)

Tested on: Staphylococcus aureus ATCC 6538
Test: Combinatorial Minimum Inhibitory Concentration (cMIC) test
Assay type: cell-based
Set-up: key to bacteria growth (values equal to or higher than 10 mean growth, less than 10 no growth): % of OD620 of control well without actives (full growth)
Conditions: for reduction of level when combined (MIC alone / level in combination): 33.3/3.13 for hinokitiol, 12.5/6.25 for piroctone olamine
Description: One way to combat the issues of cost of a material is to combine it with a lower cost material. This can be complicated depending on whether the materials interact, what each of the materials target, whether they can complement one another, how much of each is needed for efficacy, etc. This is considered to be an additive interaction between the materials, i.e. where each is doing what one would expect based on their individual properties. Occasionally, when materials are added together the combination performs better than what would be expected based on the individual performances. This is considered a synergistic relationship. Synergy can be determined through the use of a Combinatorial Minimum Inhibitory Concentration (“cMIC”) test. This can be used to determine the combinatorial effects of two chemicals on anti-bacterial activity in a tissue culture setting.
It has been discovered that there is a synergistic relationship between hinokitiol and a 2-pyridinol N-oxide material, piroctone olamine. cMIC testing was conducted utilizing Staphylococcus aureus as the bacteria. […] When combined, they were efficacious at levels of 6.25 ppm piroctone olamine and only 3.13 ppm of hinokitiol. Thus, a benefit is seen where the combination of piroctone olamine and hinokitiol comprise about 9 ppm or more by weight of the cleansing composition. Thus, hinokitiol and piroctone olamine levels are reduced by 10.7 times (33.3/3.13) and 2 times (12.5/6.25), respectively. […] Thus, combining piroctone olamine and hinokitiol allows for the use of less of each material and can reduce costs.
Combinatorial Minimum Inhibitory Concentration (cMIC) Method
A Combinatorial Minimum Inhibitory Concentration (“cMIC”) is used to determine the combinatorial effects of two chemicals on anti-bacterial activity in a tissue culture setting. Herein, the cMIC is a measure of the Minimum Inhibitory concentrations (MIC) of Hinokitiol in combination with Piroctone Olamine or vice versa.
1. Method Overview: • a. Each cMIC assay is run in triplicates. • b. Staphylococcus aureus ATCC 6538 is cultured on tryptic soy agar (TSA) (Oxoid CM0131) over 24 hours. The single colonies are then transferred into saline and mixed through vortex to obtain an optical density (OD) of 0.08-0.13 at 620 nm. 200 μL of this bacterial suspension is added to 19.8 mL of Mueller Hinton Broth (MHB) (BD 212322). This gives 5×10^5 cfu/mL. 100 μL of this bacteria-MHB mix is added to a 96 well flat-bottomed plate (TRP 92196). • c. Hinokitiol is pipetted into the wells in varying concentrations as indicated below. • d. Piroctone Olamine is pipetted into the wells in varying concentrations, as indicated below. • e. The plates are then read using a spectrophotometer at 620 nm. This is the 0-hour reading. • f. The plates are incubated at 37° C. between 18-24 hours with shaking at 50 rpm. • g. The optical density of the plate is then measured using a spectrophotometer at 620 nm. • h. The OD value is calculated as subtraction of the readings between 18-24 hour and the 0-hour. • i. cMIC is determined as the minimal concentration of Hinokitiol in combination with Piroctone Olamine or vice versa, corresponding to the well whose OD value is less than 10% of the OD value of the control well without Hinokitiol and Piroctone Olamine (full growth).

Cc1cc(CC(C)CC(C)(C)C)n(O)c(=O)c1.NCCO (centres unmarked) [Piroctone Olamine, piroctone olamine]
reduction of level when combined (MIC alone / level in combination): 2 times
bacteria growth (values equal to or higher than 10 mean growth, less than 10 no growth) (Piroctone Olamine 3.13 ppm alone (Hinokitiol 0 ppm)): 94
bacteria growth (values equal to or higher than 10 mean growth, less than 10 no growth) (Piroctone Olamine 6.25 ppm alone (Hinokitiol 0 ppm)): 46
bacteria growth (values equal to or higher than 10 mean growth, less than 10 no growth) (Piroctone Olamine 12.5 ppm alone (Hinokitiol 0 ppm)): 1
bacteria growth (values equal to or higher than 10 mean growth, less than 10 no growth) (Piroctone Olamine 15 ppm alone (Hinokitiol 0 ppm)): 1
bacteria growth (values equal to or higher than 10 mean growth, less than 10 no growth) (Piroctone Olamine 17.5 ppm alone (Hinokitiol 0 ppm)): 1
bacteria growth (values equal to or higher than 10 mean growth, less than 10 no growth) (Piroctone Olamine 20 ppm alone (Hinokitiol 0 ppm)): 1
bacteria growth (values equal to or higher than 10 mean growth, less than 10 no growth) (Piroctone Olamine 25 ppm alone (Hinokitiol 0 ppm)): 2
Bacterial growth (Piroctone olamine 6.25 ppm, Hinokitiol 0 ppm): Yes
minimum inhibitory concentration (MIC) against Staphylococcus aureus (single material alone): 12.5 ppm

CC(C)c1cccc(=O)c(O)c1 [Hinokitiol]
reduction of level when combined (MIC alone / level in combination): 10.7 times
bacteria growth (values equal to or higher than 10 mean growth, less than 10 no growth) (Hinokitiol 3.13 ppm alone (Piroctone Olamine 0 ppm)): 78
bacteria growth (values equal to or higher than 10 mean growth, less than 10 no growth) (Hinokitiol 6.25 ppm alone (Piroctone Olamine 0 ppm)): 103
bacteria growth (values equal to or higher than 10 mean growth, less than 10 no growth) (Hinokitiol 12.5 ppm alone (Piroctone Olamine 0 ppm)): 65
bacteria growth (values equal to or higher than 10 mean growth, less than 10 no growth) (Hinokitiol 25 ppm alone (Piroctone Olamine 0 ppm)): 17
bacteria growth (values equal to or higher than 10 mean growth, less than 10 no growth) (Hinokitiol 33.5 ppm alone (Piroctone Olamine 0 ppm)): 4
bacteria growth (values equal to or higher than 10 mean growth, less than 10 no growth) (Hinokitiol 42.5 ppm alone (Piroctone Olamine 0 ppm)): 2
bacteria growth (values equal to or higher than 10 mean growth, less than 10 no growth) (Hinokitiol 50 ppm alone (Piroctone Olamine 0 ppm)): 1
Bacterial growth (Piroctone olamine 0 ppm, Hinokitiol 33.5 ppm): Yes
MIC (Staphylococcus aureus, ATCC6538, single material alone, read-out: minimum inhibitory concentration (MIC) against Staphylococcus aureus): 33.3 µg/mL
